Reference: patent EP0183129A1, “Quinolonecarboxylic acid derivatives” (KYORIN PHARMACEUTICAL CO., LTD., priority 1984, dated 1986)
In brackets after ≈: the same amount, converted by molar mass. Read-outs that look alike come from different tables or passages of the source.

Experiments:
[1] = system: S. pyogenes 3107; test: In vitro antibacterial activity, MIC (clinical isolates); type: cell-based; details: Streptococcus pyogenes
[2] = system: S. epidermidis IID 866; test: In vitro antibacterial activity, MIC (standard strain); type: cell-based; details: Staphylococcus epidermidis, IID866, S. epidermidis IID 866; 10^6 cells/ml; standard strain; read-out: MIC
[3] = system: P. aeruginosa IFO 12689; test: as above; type: cell-based, Pseudomonas aeruginosa; details: Pseudomonas aeruginosa, IFO12689; P. aeruginosa IFO 12689; 10^6 cells/ml; standard strain; read-out: MIC
[4] = system: S. marcescens GN 7577; test: as above; type: cell-based; details: Serratia marcescens, GN7577
[5] = system: Citrobacter freundii IID 976; test: as above; type: cell-based; details: IID976; Citrobacter freundii IID 976; 10^6 cells/ml; standard strain; read-out: MIC
[6] = system: Proteus vulgaris IFO 3167; test: as above; type: cell-based; details: IFO3167; Proteus vulgaris IFO 3167; 10^6 cells/ml; standard strain; read-out: MIC
[7] = system: S. pneumoniae 15; test: In vitro antibacterial activity, MIC (clinical isolates); type: cell-based; details: Streptococcus pneumoniae; S. pneumoniae 15; 10^6 cells/ml; clinical isolate; read-out: MIC
[8] = system: Klebsiella pneumoniae KY(GN)6445; test: In vitro antibacterial activity, MIC (standard strain); type: cell-based; details: Klebsiella pneumoniae KY(GN)6445; 10^6 cells/ml; standard strain; read-out: MIC
[9] = system: S. faecalis 214; test: In vitro antibacterial activity, MIC (clinical isolates); type: cell-based; details: Enterococcus faecalis; S. faecalis 214; 10^6 cells/ml; clinical isolate; read-out: MIC
[10] = system: E. coli ML 4707; test: In vitro antibacterial activity, MIC (standard strain); type: cell-based; details: Escherichia coli, ML4707; E. coli ML 4707; 10^6 cells/ml; standard strain; read-out: MIC
[11] = system: B. fragilis 25285; test: as above; type: cell-based, Bacteroides fragilis; details: Bacteroides fragilis, 25285, B. fragilis 25285; 10^6 cells/ml; standard strain; read-out: MIC
[12] = system: S. pyogenes 3102; test: In vitro antibacterial activity, MIC (clinical isolates); type: cell-based; details: Streptococcus pyogenes
[13] = system: Serratia marcescens IID 618; test: In vitro antibacterial activity, MIC (standard strain); type: cell-based; details: Serratia marcescens, IID618, Serratia marcescens IID 618; 10^6 cells/ml; standard strain; read-out: MIC
[14] = system: S. pneumoniae 2054; test: In vitro antibacterial activity, MIC (clinical isolates); type: cell-based; details: Streptococcus pneumoniae; S. pneumoniae 2054; 10^6 cells/ml; clinical isolate; read-out: MIC
[15] = system: S. agalactiae 4470; test: as above; type: cell-based; details: Streptococcus agalactiae; S. agalactiae 4470; 10^6 cells/ml; clinical isolate; read-out: MIC
[16] = system: S. pneumoniae 2950; test: as above; type: cell-based; details: Streptococcus pneumoniae
[17] = system: C. ramosum; test: In vitro antibacterial activity, MIC (standard strain); type: cell-based; details: Thomasclavelia ramosa; C. ramosum; 10^6 cells/ml; standard strain; read-out: MIC
[18] = system: Yersinia enterocolitica IID 981; test: as above; type: cell-based; details: IID981; Yersinia enterocolitica IID 981; 10^6 cells/ml; standard strain; read-out: MIC
[19] = system: Acinetobacter anitratus IID 876; test: as above; type: cell-based; details: Acinetobacter calcoaceticus, IID876, Acinetobacter anitratus IID 876; 10^6 cells/ml; standard strain; read-out: MIC
[20] = system: S. pyogenes 4340; test: In vitro antibacterial activity, MIC (clinical isolates); type: cell-based; details: Streptococcus pyogenes
[21] = system: S. faecalis 49; test: as above; type: cell-based; details: Enterococcus faecalis; S. faecalis 49; 10^6 cells/ml; clinical isolate; read-out: MIC
[22] = system: S. aureus Smith; test: In vitro antibacterial activity, MIC (standard strain); type: cell-based, Staphylococcus aureus; details: Staphylococcus aureus, S. aureus Smith, 10^6 cells/ml, standard strain
[23] = system: S. pyogenes 3130; test: In vitro antibacterial activity, MIC (clinical isolates); type: cell-based; details: Streptococcus pyogenes
[24] = system: S. faecalis IID 682; test: In vitro antibacterial activity, MIC (standard strain); type: cell-based; details: Enterococcus faecalis, IID682
[25] = system: S. agalactiae 4342; test: In vitro antibacterial activity, MIC (clinical isolates); type: cell-based; details: Streptococcus agalactiae; S. agalactiae 4342; 10^6 cells/ml; clinical isolate; read-out: MIC
[26] = system: S. agalactiae 4394; test: as above; type: cell-based; details: Streptococcus agalactiae; S. agalactiae 4394; 10^6 cells/ml; clinical isolate; read-out: MIC
[27] = system: K. pneumoniae 1-220S; test: In vitro antibacterial activity, MIC (standard strain); type: cell-based; details: Klebsiella pneumoniae, 1220S; K. pneumoniae 1-220S; 10^6 cells/ml; standard strain; read-out: MIC
[28] = system: Alcaligenes faecalis 0104002; test: as above; type: cell-based; details: Alcaligenes faecalis, 0104002, Alcaligenes faecalis 0104002; 10^6 cells/ml; standard strain; read-out: MIC
[29] = system: S. pyogenes 4372; test: In vitro antibacterial activity, MIC (clinical isolates); type: cell-based; details: Streptococcus pyogenes
[30] = system: S. agalactiae 4368; test: as above; type: cell-based; details: Streptococcus agalactiae; S. agalactiae 4368; 10^6 cells/ml; clinical isolate; read-out: MIC
[31] = S. pyogenes 3107, 10^6 cells/ml, clinical isolate, read-out: MIC
[32] = S. marcescens GN 7577, 10^6 cells/ml, standard strain, read-out: MIC
[33] = S. pyogenes 3102, 10^6 cells/ml, clinical isolate, read-out: MIC
[34] = S. pneumoniae 2950, 10^6 cells/ml, clinical isolate, read-out: MIC
[35] = S. pyogenes 4340, 10^6 cells/ml, clinical isolate, read-out: MIC
[36] = S. faecalis IID 682, 10^6 cells/ml, standard strain, read-out: MIC
[37] = S. pyogenes 4372, 10^6 cells/ml, clinical isolate, read-out: MIC

| Structure (SMILES) | MIC [2] [µg/mL] | MIC [3] [µg/mL] | MIC [5] [µg/mL] | MIC [6] [µg/mL] | MIC [7] [µg/mL] | MIC [8] [µg/mL] | MIC [9] [µg/mL] | MIC [10] [µg/mL] | MIC [11] [µg/mL] | MIC [13] [µg/mL] | MIC [14] [µg/mL] | MIC [15] [µg/mL] | MIC [17] [µg/mL] | MIC [18] [µg/mL] | MIC [19] [µg/mL] | MIC [21] [µg/mL] | MIC [25] [µg/mL] | MIC [26] [µg/mL] | MIC [27] [µg/mL] | MIC [28] [µg/mL] | further results |
| --- | --- | --- | --- | --- | --- | --- | --- | --- | --- | --- | --- | --- | --- | --- | --- | --- | --- | --- | --- | --- | --- |
| CCNCC1CCN(c2c(F)cc3c(=O)c(C(=O)O)cn(C4CC4)c3c2Br)C1 (stereo not drawn) [Example 17, 8-Bromo-l-cyclopropyl-7-(3-ethylaminomethyl-l-pyrrolidinyl)-6-fluoro-1,4-dihydro-4-oxo-3-quinolinecarboxylic acid] | 0.025 (≈ 0.0553 µM) | 3.13 (≈ 6.92 µM) | 0.05 (≈ 0.111 µM) | 0.025 (≈ 0.0553 µM) | 0.05 (≈ 0.111 µM) | 0.05 (≈ 0.111 µM) | 0.1 (≈ 0.221 µM) | 0.025 (≈ 0.0553 µM) | ≤ 0.05 | 0.1 (≈ 0.221 µM) | 0.05 (≈ 0.111 µM) | 0.05 (≈ 0.111 µM) | 0.39 (≈ 0.862 µM) | 0.1 (≈ 0.221 µM) | 0.05 (≈ 0.111 µM) | 0.1 (≈ 0.221 µM) | 0.05 (≈ 0.111 µM) | 0.1 (≈ 0.221 µM) | 0.1 (≈ 0.221 µM) | 0.39 (≈ 0.862 µM) | MIC [1, 31]: 0.05 µg/mL (≈ 0.111 µM); MIC [4, 32]: 0.78 µg/mL (≈ 1.72 µM); MIC [12, 33]: 0.05 µg/mL (≈ 0.111 µM); MIC [16, 34]: 0.05 µg/mL (≈ 0.111 µM); MIC [20, 35]: 0.05 µg/mL (≈ 0.111 µM); MIC ([22]; read-out: MIC): 0.0125 µg/mL (≈ 0.0276 µM); MIC ([23]; read-out: MIC): 0.05 µg/mL (≈ 0.111 µM); MIC [24, 36]: 0.05 µg/mL (≈ 0.111 µM); MIC [29, 37]: 0.05 µg/mL (≈ 0.111 µM); MIC [30]: 0.05 µg/mL (≈ 0.111 µM) |
| CN(C)CC1CCN(c2c(F)cc3c(=O)c(C(=O)O)cn(C4CC4)c3c2Cl)C1 (stereo not drawn) [Example 20, 8-Chloro-1-cyclopropyl-6-fluoro-1,4-dihydro-7-(3-dimethylaminomethyl-l-pyrrolidinyl)-4-oxo-3-quinolinecarboxylic acid] | 0.05 (≈ 0.123 µM) | 3.13 (≈ 7.67 µM) | 0.05 (≈ 0.123 µM) | 0.05 (≈ 0.123 µM) | 0.05 (≈ 0.123 µM) | 0.05 (≈ 0.123 µM) | 0.1 (≈ 0.245 µM) | 0.05 (≈ 0.123 µM) | ≤ 0.05 | 0.1 (≈ 0.245 µM) | 0.1 (≈ 0.245 µM) | 0.1 (≈ 0.245 µM) | 0.39 (≈ 0.956 µM) | 0.1 (≈ 0.245 µM) | 0.05 (≈ 0.123 µM) | 0.1 (≈ 0.245 µM) | 0.1 (≈ 0.245 µM) | 0.2 (≈ 0.49 µM) | 0.1 (≈ 0.245 µM) | 0.39 (≈ 0.956 µM) | MIC [1, 31]: 0.05 µg/mL (≈ 0.123 µM); MIC [4, 32]: 1.56 µg/mL (≈ 3.82 µM); MIC [12, 33]: 0.05 µg/mL (≈ 0.123 µM); MIC [16, 34]: 0.05 µg/mL (≈ 0.123 µM); MIC [20, 35]: 0.05 µg/mL (≈ 0.123 µM); MIC ([22]; read-out: MIC): 0.025 µg/mL (≈ 0.0613 µM); MIC ([23]; read-out: MIC): 0.05 µg/mL (≈ 0.123 µM); MIC [24, 36]: 0.1 µg/mL (≈ 0.245 µM); MIC [29, 37]: 0.1 µg/mL (≈ 0.245 µM); MIC [30]: 0.05 µg/mL (≈ 0.123 µM) |
| CN(C)CC1CCN(c2c(F)cc3c(=O)c(C(=O)O)cn(C4CC4)c3c2F)C1 (stereo not drawn) [Example 21, 1-Cyclopropyl-6,8-difluoro-1,4-dihydro-7-(3-dimethylaminomethyl-1-pyrrolidinyl)-4-oxo-3-quinolinecarboxylic acid] | 0.05 (≈ 0.128 µM) | 3.13 (≈ 8 µM) | 0.05 (≈ 0.128 µM) | 0.05 (≈ 0.128 µM) | 0.2 (≈ 0.511 µM) | 0.05 (≈ 0.128 µM) | 0.2 (≈ 0.511 µM) | 0.05 (≈ 0.128 µM) | 0.2 (≈ 0.511 µM) | 0.2 (≈ 0.511 µM) | 0.2 (≈ 0.511 µM) | 0.2 (≈ 0.511 µM) | 0.78 (≈ 1.99 µM) | 0.1 (≈ 0.255 µM) | 0.05 (≈ 0.128 µM) | 0.2 (≈ 0.511 µM) | 0.2 (≈ 0.511 µM) | 0.2 (≈ 0.511 µM) | 0.2 (≈ 0.511 µM) | 0.78 (≈ 1.99 µM) | MIC [1, 31]: 0.1 µg/mL (≈ 0.255 µM); MIC [4, 32]: 1.56 µg/mL (≈ 3.99 µM); MIC [12, 33]: 0.1 µg/mL (≈ 0.255 µM); MIC [16, 34]: 0.1 µg/mL (≈ 0.255 µM); MIC [20, 35]: 0.1 µg/mL (≈ 0.255 µM); MIC ([22]; read-out: MIC): 0.05 µg/mL (≈ 0.128 µM); MIC ([23]; read-out: MIC): 0.1 µg/mL (≈ 0.255 µM); MIC [24, 36]: 0.2 µg/mL (≈ 0.511 µM); MIC [29, 37]: 0.2 µg/mL (≈ 0.511 µM); MIC [30]: 0.2 µg/mL (≈ 0.511 µM) |
| CCn1cc(C(=O)O)c(=O)c2cc(F)c(N3CCNCC3)cc21 [NFLX, Norfloxacin, reference compound] | 0.39 (≈ 1.22 µM) | 0.78 (≈ 2.44 µM) | 0.05 (≈ 0.157 µM) | 0.025 (≈ 0.0783 µM) | 3.13 (≈ 9.8 µM) | 0.05 (≈ 0.157 µM) | 3.13 (≈ 9.8 µM) | 0.05 (≈ 0.157 µM) | 25 (≈ 78.3 µM) | 0.05 (≈ 0.157 µM) | 6.25 (≈ 19.6 µM) | 6.25 (≈ 19.6 µM) | 50 (≈ 157 µM) | 0.1 (≈ 0.313 µM) | 3.13 (≈ 9.8 µM) | 3.13 (≈ 9.8 µM) | 6.25 (≈ 19.6 µM) | 6.25 (≈ 19.6 µM) | 0.2 (≈ 0.626 µM) | 3.13 (≈ 9.8 µM) | MIC [1]; 3107: 1.56 µg/mL (≈ 4.89 µM); MIC [4]: 1.56 µg/mL (≈ 4.89 µM); MIC [12]; 3102: 1.56 µg/mL (≈ 4.89 µM); MIC [16]; 2950: 12.5 µg/mL (≈ 39.1 µM); MIC [20]; 4340: 1.56 µg/mL (≈ 4.89 µM); MIC [22]: 1.56 µg/mL (≈ 4.89 µM); MIC [23]: 1.56 µg/mL (≈ 4.89 µM); MIC [24]: 1.56 µg/mL (≈ 4.89 µM); MIC [29]; 4372: 1.56 µg/mL (≈ 4.89 µM); MIC [30]: 3.13 µg/mL (≈ 9.8 µM) |
